The text below walks through data of publication PMC9054212, “Discovery of 4-(2-(dimethylamino)ethoxy)benzohydrazide derivatives as prospective microtubule affinity regulating kinase 4 inhibitors” (RSC Advances, 2020).

As usually defined, the melting point is the temperature of the solid-liquid transition. `CN(C)CCOc1ccc(C(=O)NN=Cc2ccc([N+](=O)[O-])cc2)cc1` [H6] showed a melting point of 96 to 100 °C.
Regarding `CN(C)CCOc1ccc(C(=O)NN=Cc2ccccc2O)cc1` [H7], the melting point lay in the range of 149 to 153 °C.
The figure for `CN(C)CCOc1ccc(C(=O)NN=Cc2cccc([N+](=O)[O-])c2)cc1` [H5] is 125 to 130 °C; for `CN(C)CCOc1ccc(C(=O)NN=Cc2ccc(O)cc2)cc1` [H8] it is 109 to 114 °C.
